# Results as given in article PMC4980153 (Biochemical pharmacology, 2016).
# “And” between values parts separate entries of the source, which are not always exact repeats. Identical values can stand only once. Counter-ions that a name gives are not always drawn. Like-named read-outs stand apart in the source and are kept apart here.
# Tests used:
# [1] = molecular target: (e1-BB2) BB3* loss-of-affinity chimera (Homo sapiens, UniProt P32247, E111D/G112R/H107K/H294R/T106S); test: 125I-peptide #1 competition binding, CHOP cells; design: species or system mouse; conditions: EC1 of BB3* replaced by EC1 of BB2, vs BB3*
# [2] = molecular target: (e2-BB2) BB3* loss-of-affinity chimera (Homo sapiens, UniProt P32247, D193V/E201I/E215K/H294R/K196T/K210N/K211E/L213H/L219M/L220A/M198Q/N187D/N195D/P194K/Q214P/R192H/S205P/T190P/T204A/V188L/V208H/Y189H); test: 125I-peptide #1 competition binding, CHOP cells; design: species or system mouse; conditions: EC2 of BB3* replaced by EC2 of BB2, vs BB3*
# [3] = test system: (e1-BB3) BB2 gain-of-affinity chimera; test: 125I-peptide #1 competition binding, CHOP cells; design: species or system human, mouse; conditions: EC1 of BB2 replaced by EC1 of BB3, vs wild type BB2
# [H107K] BB3* receptor = [H107K] BB3* receptor (Homo sapiens, UniProt P32247, H107K/H294R); test: 125I-peptide #1 competition binding, CHOP cells
# [4] = molecular target: [H107K] wild type BB3 receptor (Homo sapiens, UniProt P32247, H107K); test: 125I-peptide #1 competition binding, CHOP cells
# [H107D] BB3* receptor = [H107D] BB3* receptor (Homo sapiens, UniProt P32247, H107D/H294R); test: 125I-peptide #1 competition binding, CHOP cells
# [5] = molecular target: [H107F] wild type BB3 receptor (Homo sapiens, UniProt P32247, H107F); test: 125I-peptide #1 competition binding, CHOP cells
# [6] = molecular target: [H107Y] wild type BB3 receptor (Homo sapiens, UniProt P32247, H107Y); test: 125I-peptide #1 competition binding, CHOP cells
# [7] = molecular target: [H107K, G112R] BB3* receptor (Homo sapiens, UniProt P32247, G112R/H107K/H294R); test: 125I-peptide #1 competition binding, CHOP cells
# [8] = molecular target: [H107K, G112R] wild type BB3 receptor (Homo sapiens, UniProt P32247, G112R/H107K); test: 125I-peptide #1 competition binding, CHOP cells
# [L123I] BB3* receptor = [L123I] BB3* receptor (Homo sapiens, UniProt P32247, H294R/L123I); test: 125I-peptide #1 competition binding, CHOP cells
# [9] = molecular target: [V101A] wild type BB3 receptor (Homo sapiens, UniProt P32247, V101A); test: 125I-peptide #1 competition binding, CHOP cells
# [S124P] BB3* receptor = [S124P] BB3* receptor (Homo sapiens, UniProt P32247, H294R/S124P); test: 125I-peptide #1 competition binding, CHOP cells
# [R127K] BB3* receptor = [R127K] BB3* receptor (Homo sapiens, UniProt P32247, H294R/R127K); test: 125I-peptide #1 competition binding, CHOP cells
# [10] = molecular target: [R127K] wild type BB3 receptor (Homo sapiens, UniProt P32247, R127K); test: 125I-peptide #1 competition binding, CHOP cells
# [R127N] BB3* receptor = [R127N] BB3* receptor (Homo sapiens, UniProt P32247, H294R/R127N); test: 125I-peptide #1 competition binding, CHOP cells
# [11] = molecular target: [R127N] wild type BB3 receptor (Homo sapiens, UniProt P32247, R127N); test: 125I-peptide #1 competition binding, CHOP cells
# [R127H] BB3* receptor = [R127H] BB3* receptor (Homo sapiens, UniProt P32247, H294R/R127H); test: 125I-peptide #1 competition binding, CHOP cells
# [12] = molecular target: [R127H] wild type BB3 receptor (Homo sapiens, UniProt P32247, R127H); test: 125I-peptide #1 competition binding, CHOP cells
# [13] = molecular target: BB3 and BB3* receptors and their mutants (Homo sapiens, UniProt P32247, H294R/R127H); conditions: [R127H], background not stated (discussion)
# [14] = molecular target: BB3 and BB3* receptors and their mutants (Homo sapiens, UniProt P32247, H294R/R127K); conditions: [R127K], background not stated (discussion)
# [15] = test system: BB3 and BB3* receptors and their mutants
# (e1-BB2) BB3* loss-of-affinity chimera, sequence (P32247 whole entry T106S/H107K/E111D/G112R/H294R): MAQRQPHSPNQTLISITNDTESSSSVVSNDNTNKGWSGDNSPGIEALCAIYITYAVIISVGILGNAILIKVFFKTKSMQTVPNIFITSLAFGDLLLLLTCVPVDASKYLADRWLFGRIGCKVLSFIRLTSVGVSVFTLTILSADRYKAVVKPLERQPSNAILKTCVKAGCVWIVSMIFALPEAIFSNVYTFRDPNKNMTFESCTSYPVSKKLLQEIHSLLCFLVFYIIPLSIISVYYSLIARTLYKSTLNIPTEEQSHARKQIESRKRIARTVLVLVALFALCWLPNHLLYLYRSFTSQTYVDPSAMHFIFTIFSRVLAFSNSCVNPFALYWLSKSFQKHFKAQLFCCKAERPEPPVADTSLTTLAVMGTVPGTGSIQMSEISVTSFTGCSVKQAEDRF
# [R127K] BB3* receptor, sequence (P32247 whole entry R127K/H294R): as the sequence (P32247 whole entry T106S/H107K/E111D/G112R/H294R) above, with S106T, K107H, D111E, R112G, R127K counted along it
# BB3 and BB3* receptors and their mutants (Homo sapiens, UniProt P32247, H294R/R127K), sequence (P32247 whole entry R127K/H294R): as the sequence (P32247 whole entry T106S/H107K/E111D/G112R/H294R) above, with S106T, K107H, D111E, R112G, R127K counted along it
# [H107K] BB3* receptor, sequence (P32247 whole entry H107K/H294R): as the sequence (P32247 whole entry T106S/H107K/E111D/G112R/H294R) above, with S106T, D111E, R112G counted along it
# [H107K, G112R] wild type BB3 receptor, sequence (P32247 whole entry H107K/G112R): as the sequence (P32247 whole entry T106S/H107K/E111D/G112R/H294R) above, with S106T, D111E, R294H counted along it
# [R127H] BB3* receptor, sequence (P32247 whole entry R127H/H294R): as the sequence (P32247 whole entry T106S/H107K/E111D/G112R/H294R) above, with S106T, K107H, D111E, R112G, R127H counted along it
# BB3 and BB3* receptors and their mutants (Homo sapiens, UniProt P32247, H294R/R127H), sequence (P32247 whole entry R127H/H294R): as the sequence (P32247 whole entry T106S/H107K/E111D/G112R/H294R) above, with S106T, K107H, D111E, R112G, R127H counted along it
# [V101A] wild type BB3 receptor, sequence (P32247 whole entry V101A): as the sequence (P32247 whole entry T106S/H107K/E111D/G112R/H294R) above, with V101A, S106T, K107H, D111E, R112G, R294H counted along it
# [H107F] wild type BB3 receptor, sequence (P32247 whole entry H107F): as the sequence (P32247 whole entry T106S/H107K/E111D/G112R/H294R) above, with S106T, K107F, D111E, R112G, R294H counted along it
# [L123I] BB3* receptor, sequence (P32247 whole entry L123I/H294R): as the sequence (P32247 whole entry T106S/H107K/E111D/G112R/H294R) above, with S106T, K107H, D111E, R112G, L123I counted along it
# [H107K] wild type BB3 receptor, sequence (P32247 whole entry H107K): as the sequence (P32247 whole entry T106S/H107K/E111D/G112R/H294R) above, with S106T, D111E, R112G, R294H counted along it
# [H107K, G112R] BB3* receptor, sequence (P32247 whole entry H107K/G112R/H294R): as the sequence (P32247 whole entry T106S/H107K/E111D/G112R/H294R) above, with S106T, D111E counted along it
# (e2-BB2) BB3* loss-of-affinity chimera, sequence (P32247 1-399 with the stated changes): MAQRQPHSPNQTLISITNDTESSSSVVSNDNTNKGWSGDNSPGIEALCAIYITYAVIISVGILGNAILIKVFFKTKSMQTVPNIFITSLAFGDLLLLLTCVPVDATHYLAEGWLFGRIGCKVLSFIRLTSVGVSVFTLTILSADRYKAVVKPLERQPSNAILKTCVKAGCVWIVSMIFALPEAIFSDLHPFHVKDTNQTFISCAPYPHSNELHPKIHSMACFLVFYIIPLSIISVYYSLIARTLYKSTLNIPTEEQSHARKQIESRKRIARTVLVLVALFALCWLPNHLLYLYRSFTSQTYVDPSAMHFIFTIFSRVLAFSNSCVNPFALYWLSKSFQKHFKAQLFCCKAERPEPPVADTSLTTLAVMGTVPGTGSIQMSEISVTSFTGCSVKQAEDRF
# [S124P] BB3* receptor, sequence (P32247 whole entry S124P/H294R): as the sequence (P32247 whole entry T106S/H107K/E111D/G112R/H294R) above, with S106T, K107H, D111E, R112G, S124P counted along it
# [H107Y] wild type BB3 receptor, sequence (P32247 whole entry H107Y): as the sequence (P32247 whole entry T106S/H107K/E111D/G112R/H294R) above, with S106T, K107Y, D111E, R112G, R294H counted along it
# [R127H] wild type BB3 receptor, sequence (P32247 whole entry R127H): as the sequence (P32247 whole entry T106S/H107K/E111D/G112R/H294R) above, with S106T, K107H, D111E, R112G, R127H, R294H counted along it
# [R127N] BB3* receptor, sequence (P32247 whole entry R127N/H294R): as the sequence (P32247 whole entry T106S/H107K/E111D/G112R/H294R) above, with S106T, K107H, D111E, R112G, R127N counted along it
# [R127N] wild type BB3 receptor, sequence (P32247 whole entry R127N): as the sequence (P32247 whole entry T106S/H107K/E111D/G112R/H294R) above, with S106T, K107H, D111E, R112G, R127N, R294H counted along it
# [H107D] BB3* receptor, sequence (P32247 whole entry H107D/H294R): as the sequence (P32247 whole entry T106S/H107K/E111D/G112R/H294R) above, with S106T, K107D, D111E, R112G counted along it
# [R127K] wild type BB3 receptor, sequence (P32247 whole entry R127K): as the sequence (P32247 whole entry T106S/H107K/E111D/G112R/H294R) above, with S106T, K107H, D111E, R112G, R127K, R294H counted along it
structure (smiles),measurement,setting,value
"CC(C)C[C@H](NC(=O)C[C@H](O)[C@H](CC1CCCCC1)NC(=O)[C@H](Cc1c[nH]cn1)NC(=O)[C@H](Cc1ccccc1)NC(=O)OC(C)(C)C)C(=O)NCc1cccc([N+](C)(C)C)c1 [Bantag-1, Boc-Phe-His-4-amino-5-cyclohexyl-2,4,5-trideoxypentonyl-Leu- (3-dimethylamino) benzylamide N-methylammonium trifluoroacetate]",decrease in affinity,[1],377 fold and > 377 fold and > 400 fold
same,decrease in affinity,[2],23 fold
same,increase in affinity,[3],5 fold
same,decrease in affinity,[H107K] BB3* receptor,54 fold
same,decrease in affinity,[4],35 fold
same,decrease in affinity,[H107D] BB3* receptor,> 192 fold
same,decrease in affinity,[5],4 fold
same,decrease in affinity,[6],13 fold
same,decrease in affinity,[7],250 fold
same,decrease in affinity,[8],68 fold
same,decrease in affinity,[L123I] BB3* receptor,4 fold
same,decrease in affinity,[9],179 fold
same,decrease in affinity,[S124P] BB3* receptor,54 fold
same,decrease in affinity,[R127K] BB3* receptor,45 fold
same,decrease in affinity,[10],> 526 fold
same,decrease in affinity,[R127N] BB3* receptor,78 fold
same,decrease in affinity,[11],12 fold
same,decrease in affinity,[R127H] BB3* receptor,192 fold
same,decrease in affinity,[12],175 fold
same,decrease in affinity,[13],> 192 fold
same,decrease in affinity,[14],45 fold
same,decrease in affinity,[15]; E111D or G112R BB3 receptor mutants,1 to 2.5 fold
same,loss in affinity,[15]; [G112R] in wild type and BB3* receptor,2 fold and 2–3 fold
same,decrease in affinity,[15]; [H107F] and [H107Y] in BB3*,7–16 fold
same,decrease in affinity,"[15]; [H107K, E111D, G112R] in wild type and BB3*",500 fold and > 500 fold
same,decrease in affinity,"[15]; [H107K], BB3 and BB3* not separated",60 fold and 35–54 fold and 50 fold
same,decrease in affinity,[15]; [H107N] in either BB3 or BB3*,> 58 fold
same,decrease in affinity,"[15]; [H107W], background not separated",> 190 times
same,decrease in affinity,[15]; [H107Y] and [H107F] in either BB3 or BB3*,4–16 fold and 5–17 fold
same,decrease in affinity,"[15]; [L123I, R127Q] in wild type and BB3*","> 2,000 fold"
same,decrease in affinity,[15]; [R127E] in wild type and BB3*,188 fold and > 200 fold
same,decrease in affinity,"[15]; [R127Q], [L123I] and [S124P] in wild type BB3",233–536 fold
same,decrease in affinity,"[15]; [R127Q], background not separated",400 fold and > 390 fold and > 400 fold
same,Ki,"[15]; read-out: Ki (range given), [G112R] in wild type and BB3* receptor",11.6 to 16 nM
same,decrease in affinity,[15]; single EC1 amino acid substitutions alone,1.4–54 fold
